Assay results taken from the supplement of paper PMC13380429.

Columns and labels:
Conditions in all cases: 72 h
Vero E6 [1] = assay: drug sensitivity score (DSS) for viability; higher = more toxic; extreme values may be limits of the assay
HepG2 [2] = assay: as above
Calu-3 [3] = assay: as above
Caco-2 [4] = assay: as above
U2OS [5] = assay: as above
Vero E6 [6] = assay: relative viability EC50 (midpoint between 100% and the lowest measured viability); higher = less toxic
Calu-3 [7] = assay: as above
Caco-2 [8] = assay: as above
U2OS [9] = assay: as above
Vero E6 [10] = assay: cell viability relative to DMSO; higher = less toxic
HepG2 [11] = assay: as above
Calu-3 [12] = assay: as above
Caco-2 [13] = assay: as above
U2OS [14] = assay: as above

Row | Compound | drug sensitivity score (Vero E6 [1]) | drug sensitivity score (HepG2 [2]) | drug sensitivity score (Calu-3 [3]) | drug sensitivity score (Caco-2 [4]) | drug sensitivity score (U2OS [5]) | relative viability EC50 (Vero E6 [6]) | relative viability EC50 (Calu-3 [7]) | relative viability EC50 (Caco-2 [8]) | relative viability EC50 (U2OS [9]) | cell viability (Vero E6 [10]; 1 nM) | cell viability (Vero E6 [10]; 10 nM) | cell viability (Vero E6 [10]; 100 nM) | cell viability (Vero E6 [10]; 1000 nM) | cell viability (Vero E6 [10]; 10000 nM) | cell viability (HepG2 [11]; 1 nM) | cell viability (HepG2 [11]; 10 nM) | cell viability (HepG2 [11]; 100 nM) | cell viability (HepG2 [11]; 1000 nM) | cell viability (HepG2 [11]; 10000 nM) | cell viability (Calu-3 [12]; 1 nM) | cell viability (Calu-3 [12]; 10 nM) | cell viability (Calu-3 [12]; 100 nM) | cell viability (Calu-3 [12]; 1000 nM) | cell viability (Calu-3 [12]; 10000 nM) | cell viability (Caco-2 [13]; 1 nM) | cell viability (Caco-2 [13]; 10 nM) | cell viability (Caco-2 [13]; 100 nM) | cell viability (Caco-2 [13]; 1000 nM) | cell viability (Caco-2 [13]; 10000 nM) | cell viability (U2OS [14]; 1 nM) | cell viability (U2OS [14]; 10 nM) | cell viability (U2OS [14]; 100 nM) | cell viability (U2OS [14]; 1000 nM) | cell viability (U2OS [14]; 10000 nM)
1 | CC(C)C[C@@H](C(=O)N[C@@H](Cc1ccc(OCc2ccccc2)cc1)C(=O)NC(C)(C)C)N(C)Cc1ccc(C(C)(C)C)cc1 | 0 | 1.6 | 0 | 0 | 0.1 | > 10 µM | > 10 µM | > 10 µM | > 10 µM | 103% | 103% | 106% | 97.8% | 95.7% | 107% | 101% | 93.5% | 99.1% | 68% | 93.4% | 105% | 97.5% | 111% | 87.8% | 88.8% | 95.9% | 94.1% | 100% | 87.5% | 97.4% | 101% | 97.5% | 101% | 85.5%
2 | COCc1nnc(N2CC(Oc3ccc(F)cc3Cl)C2)n1-c1ccc(OC)nc1 | 0 |  | 0 | 0 | 0 | > 10 µM | > 10 µM | > 10 µM | > 10 µM | 97.8% | 93.1% | 101% | 90.9% | 106% |  |  |  |  |  | 92.8% | 103% | 101% | 104% | 113% | 88.5% | 105% | 102% | 105% | 97.5% | 93.3% | 93.6% | 95.6% | 103% | 97.4%
3 | Nc1nc(NCCNc2ncc(-n3ccnc3)c(-c3ccc(Cl)cc3Cl)n2)ccc1[N+](=O)[O-] | 0 |  | 0 | 0 | 0 | > 10 µM | > 10 µM | > 10 µM | > 10 µM | 96.1% | 98% | 94.2% | 97.1% | 106% |  |  |  |  |  | 96.3% | 98.1% | 104% | 111% | 112% | 96.7% | 99.9% | 100% | 111% | 111% | 96.9% | 101% | 96.7% | 103% | 110%
4 | NCC(=O)Nc1ccc(-n2nc(C(F)(F)F)cc2-c2ccc3c(ccc4ccccc43)c2)cc1 [AR-12] | 3.5 | 0.9 | 2.7 | 0 | 0 |  | 3.39 µM | > 10 µM | > 10 µM | 97.4% | 94.3% | 95.7% | 80.4% | 68.2% | 110% | 96.1% | 103% | 105% | 71.5% | 103% | 98.2% | 98.9% | 102% | 45.4% | 96.8% | 91% | 87.9% | 96.8% | 92.1% | 89.7% | 98.9% | 95% | 100% | 89%
5 | Cc1ccccc1NC(=O)Nc1ccc(CC(=O)N(C)[C@@H](CC(C)C)C(=O)NCC[C@H](NC(=O)[C@@H]2CCCN2S(=O)(=O)c2cc(Cl)cc(Cl)c2)C(=O)O)cc1 [BIO-5192] | 0 |  | 0 | 0 | 0 | > 10 µM | > 10 µM | > 10 µM | > 10 µM | 98.3% | 93.9% | 93.1% | 96.7% | 109% |  |  |  |  |  | 104% | 102% | 96.5% | 108% | 104% | 98% | 97.3% | 90.5% | 99.5% | 96.8% | 102% | 96.2% | 95.1% | 105% | 97.6%
6 | CNC(=O)[C@H]1O[C@@H](n2cnc3c(NCc4cccc(I)c4)ncnc32)[C@H](O)[C@@H]1O [IB-MECA] | 0 | 3.3 | 0.1 | 0 | 0 | > 10 µM | > 10 µM | > 10 µM | > 10 µM | 103% | 97.1% | 99.8% | 97% | 102% | 107% | 68.7% | 98.3% | 68.8% | 88.8% | 96.3% | 98.3% | 93.4% | 109% | 85.3% | 112% | 96.2% | 99.8% | 105% | 93.3% | 101% | 105% | 102% | 106% | 95.8%
7 | CN(C[C@@H]1COCCO1)S(=O)(=O)Nc1ccc2ccc3ncc(-c4cnn(C)c4)cc3c(=O)c2c1 [MK-2461] | 3.1 | 3.5 | 0 | 1.7 | 2.2 |  | > 10 µM |  |  | 103% | 97.7% | 97.3% | 93.2% | 59.7% | 96.6% | 96.6% | 96.5% | 91.4% | 58.6% | 81.9% | 89% | 84% | 90.7% | 93.9% | 103% | 97.9% | 94.5% | 99.7% | 64.5% | 89.1% | 98.8% | 99.2% | 96.9% | 64.1%
8 | COc1ccccc1N1CCN(CCCCN2C(=O)CCC2=O)CC1 [MM77] | 0 |  | 0 | 0 | 0 | > 10 µM | > 10 µM | > 10 µM | > 10 µM | 94.5% | 93.4% | 92.7% | 94% | 110% |  |  |  |  |  | 104% | 100% | 96.6% | 114% | 107% | 92.4% | 102% | 83.8% | 102% | 106% | 100% | 101% | 94.9% | 106% | 97.2%
9 | COc1ccccc1S(=O)(=O)Nc1ccc2c(c1)CN(C)C(=O)N2 [PFI-1] | 7.6 | 3.6 | 3.9 | 1.7 |  | 1.65 µM |  | > 10 µM |  | 102% | 102% | 96.2% | 81.5% | 16.3% | 108% | 103% | 94.3% | 94.4% | 50.1% | 102% | 92.6% | 102% | 88% | 58.2% | 102% | 102% | 107% | 94% | 75.7% |  |  |  |  | 
10 | CNC(=O)COC(=O)NCCC1CCN(c2cccc(C)n2)CC1 [SA-47] | 0 |  | 0 | 0 | 0 | > 10 µM | > 10 µM | > 10 µM | > 10 µM | 85.7% | 97.6% | 90.7% | 92.7% | 110% |  |  |  |  |  | 98.4% | 101% | 105% | 103% | 105% | 90.7% | 101% | 97.7% | 99.3% | 94% | 92.8% | 101% | 103% | 97.7% | 99.2%
11 | CCc1cccc(CC)c1NC1=NCCN1 [ST-91] | 0 |  | 0 | 0 | 0 | > 10 µM | > 10 µM | > 10 µM | > 10 µM | 98.9% | 97.1% | 102% | 98.3% | 93.5% |  |  |  |  |  | 104% | 90.2% | 96.6% | 89.6% | 115% | 102% | 101% | 96.2% | 93.4% | 100% | 103% | 98.7% | 104% | 94.8% | 99%
12 | Cc1cc(C)nc(SCC(=O)Nc2ncc(Cc3cccc4ccccc34)s2)n1 [SirReal-2] |  |  | 0 | 0 | 0 |  | > 10 µM | > 10 µM | > 10 µM |  |  |  |  |  |  |  |  |  |  | 97% | 95.7% | 95.1% | 91% | 102% | 104% | 101% | 93.4% | 99.6% | 96.6% | 94.7% | 103% | 96.6% | 101% | 92.8%
13 | C=CC(=O)O [acrylate] | 0 | 0 | 0 |  | 0 |  |  |  |  |  |  |  |  |  |  |  |  |  |  |  |  |  |  |  |  |  |  |  |  |  |  |  |  | 
14 | CC(=O)[C@@]12O[C@](C)(c3ccccc3)O[C@@H]1C[C@H]1[C@@H]3CCC4=CC(=O)CC[C@]4(C)[C@H]3CC[C@@]12C [algestone-acetophenide] | 0 | 1 | 0 | 0.7 | 0 | > 10 µM | > 10 µM | > 10 µM | > 10 µM | 101% | 96.6% | 87.5% | 92.3% | 102% | 98.3% | 108% | 102% | 103% | 71.7% | 105% | 100% | 96.3% | 109% | 86.4% | 104% | 94.2% | 97.5% | 100% | 78.5% | 99.7% | 95.2% | 99.3% | 98.4% | 91.8%
15 | CN(C)CCc1c[nH]c2ccc(CS(=O)(=O)N3CCCC3)cc12 [almotriptan] |  |  | 0 | 0 | 0 |  | > 10 µM | > 10 µM | > 10 µM |  |  |  |  |  |  |  |  |  |  | 98.8% | 103% | 108% | 97.8% | 106% | 92.9% | 97.9% | 99.9% | 109% | 106% | 101% | 104% | 101% | 98.6% | 100%
16 | C1=C2CCCN[C@H]2[C@@H]2C[C@H]1[C@H]1CCCCN1C2 [aloperine] | 0 |  | 1.4 | 0 | 0 | > 10 µM | > 10 µM | > 10 µM | > 10 µM | 102% | 100% | 104% | 99.4% | 98.1% |  |  |  |  |  | 91.1% | 99.2% | 90.7% | 85% | 83.1% | 96.4% | 108% | 104% | 106% | 94.4% | 96.8% | 102% | 92.8% | 100% | 94.1%
